According to PMC7822874, “Chemoprotective antimalarials identified through quantitative high-throughput screening of Plasmodium blood and liver stage parasites” (Scientific Reports, 2021):

Experiments:
[1] = system: Plasmodium falciparum Dd2 asexual blood stage parasites; assay: microbe, parasite or virus in culture; design: species or system Plasmodium falciparum Dd2 in human erythrocytes; single determination (one 11-point concentration-response curve); settings: Plasmodium falciparum, DD2, Erythrocyte, 72 h; read-out: AC50
in vitro = settings: human
[2] = HepG2-A16-CD81EGFP cells, uninfected

SMILES	AC50 [1] [µM]	viability at 48 h, 1 µM (in vitro; [2]) [%]	viability at 48 h, 3 µM (in vitro; [2]) [%]	viability at 66 h (in vitro; [2]) [%]	viability at 48 h (in vitro; [2]) [%]	viability at 66 h (in vitro) [%]
O=C(CN1C2=NCCCN2c2ccccc21)c1ccc(Cl)cc1Cl [MLS000662689-01]	6.68	99	94			
COCCCNc1nc2cc(OC)c(OC)cc2c2nc(-c3ccccc3)nn12 [NCGC00112853-01]	0.237	105	99			
CC1CCCCN1Cc1c(O)ccc2c(=O)c(-c3nc4ccccc4s3)c(N)oc12 (centres unmarked) [MLS000591245-01]	1.06	98	95			
COc1cc(NC(=O)c2cc3c(Cl)nc4ccccc4c3s2)cc(OC)c1OC [MLS000582472-01]	4.73	90	84			
COc1ccc(C2=C(Nc3ccc(C)cc3)c3ccccc3C2=O)cc1 [MLS000563980-01]	4.73	96	90			
COc1cc(C(=O)Nc2ccc3nc(N4CCN(C)CC4)cc(C)c3c2)cc(OC)c1OC [MLS001197839-01]	3.35	101	103			
Cc1ccccc1NC(=O)c1cc(C(=O)c2cc(Cl)ccc2O)cn(-c2ccccc2C)c1=O [MLS000374594-01]	0.376	98	93			
N#Cc1cc(C(=O)c2cc(Br)ccc2O)cn(C2CCCCC2)c1=O [MLS000565115-01]	0.668	90	84			
C=C(C)CSc1nc2sc3c(c2c(=O)n1C1CCCCC1)CCN(C)C3 [MLS000779440-01]	2.37	98	91			
CCCCOc1ccc(C(=O)N/C(=C\c2cccc([N+](=O)[O-])c2)C(=O)OC(C)C)cc1 [MLS000574332-01]	2.11	101	100			
CCN1CCC(Nc2ccnc3cc(Cl)ccc23)CC1 [MLS000737411-01]	0.188	99	100			
Cc1ccccc1C(=O)NC(CC(C)C)C(=O)OCC(=O)c1c(N)n(C)c(=O)n(C)c1=O (centres unmarked) [MLS001033160-01]	2.66			106		
CCCCNc1nc2sc3c(c2c(=O)n1-c1cccc(Cl)c1)CCN(C)C3 [MLS000762857-01]	9.44	106			106	
C=C(C)COc1ccc(-c2ncnc(C(F)(F)F)c2-c2ccccc2)c(O)c1 [MLS001216193-01]	2.37	104	97			
O=C(Nc1ccc(C2=NCCN2)cc1)c1ccc(C(=O)Nc2ccc(C3=NCCN3)cc2)c([N+](=O)[O-])c1 [MLS000737369-01]	0.237	94	85			
CCC(=O)N1CCc2cc(Br)cc(S(=O)(=O)N3CCCC(C(=O)NC(C)(C)C)C3)c21 (centres unmarked) [MLS000937025-01]	3.35	98.3			98.3	
Cc1ccc(NC(=O)CC[S+](=O)([O-])c2cc(Br)cc3c2N(C(=O)C2CC2)CC3)cc1 [NCGC00107230-01]	2.37			101		
Cc1cn(-c2cc(C(=O)Nc3ccc(C)c(NC(=O)C(=O)c4c[nH]c5ccccc45)c3)cc(C(F)(F)F)c2)cn1 [MLS003105973-01]	2.11	112			112	
COc1ccc(NC2=C(c3ccc(OC)cc3)C(=O)c3ccccc32)cc1 [MLS000562793-01]	5.96	91	90			
Cc1cc(C)cc(Nc2cc(C)nc3nc(C)nn23)c1 [MLS000116612-01]	5.31	112			112	
CCOC(=O)c1c(C)[nH]c(C(=O)CSc2nnc(C3CC3)n2N)c1C [MLS000536141-01]	1.5	92	89			
Cc1c(O)c(CN2CCCC2)cc2c1oc(=O)c1ccccc12 [MLS000081529-01]	2.66	108	102			
Cc1cc(NC(=O)CN2CCN(c3ccc(O)cc3)CC2)no1 [MLS000565196-01]	4.73	104	107			
C#CCN1c2ccccc2Sc2cccnc21 [MLS001166384-01]	6.68			99.6		
Cc1cc(Nc2ccc3ccccc3c2)n2ncnc2n1 [MLS000077665-01]	0.596	88	86			
CCn1c2c(c(=N)c3c1CCC3)CCCC2 [MLS001047512-01]	13.3			100		
C=CCOC(=O)C(C#N)c1nc2ccccc2nc1N1CCC(C(=O)OCC)CC1 (centres unmarked) [MLS000036470-01]	2.37	108	100			
COc1cccc(OC)c1C(=O)NC(S)=Nc1ccc2c(c1)C(=O)N(C)C2=O [MLS000331897-01]	0.944			103		

SMILES	AC50 [1] [µM]	viability at 48 h, 1 µM (in vitro; [2]) [%]	viability at 48 h, 3 µM (in vitro; [2]) [%]	viability at 66 h (in vitro; [2]) [%]	viability at 48 h (in vitro; [2]) [%]	viability at 66 h (in vitro) [%]
CCCNC(=O)c1ccc(N2CCC3(CC2)CC(c2cccc(Br)c2)=NO3)c(NC(=O)c2ccco2)c1 [MLS001074397-01]	2.99	118	104			
COc1ccc(CCNC(=O)c2cc(C(=O)c3cc(Cl)ccc3O)cn(CCc3ccc(OC)cc3)c2=O)cc1 [MLS000402334-01]	3.76			105		
CCn1c(SCC(=O)NCCc2ccccc2)nc2sc3c(c2c1=O)CCN(C)C3 [MLS000332196-01]	5.31	96	87			
Cc1cc(N2CCN(C)CC2)nc2ccc(NC(=O)c3ccc(Br)o3)cc12 [MLS000086536-01]	6.68	104	104			
O=C1/C(=C/Nc2cccc(S(=O)(=O)NC3=NCCCCC3)c2)c2ccccc2C(=O)N1Cc1ccccc1 [MLS000775273-01]	13.3			93.2		
CCCN1CCc2c(sc3nc(SC)n(-c4ccccc4)c(=O)c23)C1 [MLS001173550-01]	2.66	112	101			
COc1ccccc1C1c2[nH]c3ccccc3c2C[C@H]2C(=O)N(C3CCN(Cc4ccccc4)CC3)CC(=O)N12 (some centres unmarked) [MLS001215063-01]	2.11	87	85			
Oc1ccc(Nc2ccnc3cc(Cl)ccc23)cc1 [MLS000737975-01]	1.68			96.9		
COc1ccc(C(C(=O)Nc2ccc(C(C)C)cc2)N(Cc2ccco2)C(=O)CC2NC(=O)NC2=O)cc1 (centres unmarked) [MLS000729756-01]	6.68	99	94			
O=c1c(=Cc2ccco2)sc2n1CN(c1cccc(Br)c1)CN=2 [MLS000535198-01]	9.44	103	103			
Cc1ccc(NC(=O)c2ccc(NCCCN3CCC(C)CC3)c([N+](=O)[O-])c2)cc1F [MLS000689412-01]	6.68	106	104			
CN(C)c1cc[n+](CC(=O)c2ccc(Br)cc2)cc1 [MLS000678949-01]	7.5			103		
CCCCN(C)CCNC(=O)c1cc2c(-c3cccc(OC)c3)nn(C)c2s1 [MLS001199565-01]	6.68	86	85			
Oc1cc2c(cc1CN1CCN(c3cccc(C(F)(F)F)c3)CC1)CCC2 [MLS000570420-01]	0.944	102	101			
COc1ccccc1N1CCN(C(=O)c2ccc3c(=O)n(Cc4ccc5c(c4)OCO5)c(=O)[nH]c3c2)CC1 [MLS001028591-01]	2.99			94		
O=c1c(-c2ccc(Br)cc2)coc2c(CN3CCCCC3)c(O)ccc12 [MLS001214902-01]	2.11			98.2		
Cc1cc(Nc2ccccc2)nc2cc(O)ccc12 [MLS000586979-01]	0.422	100	100			
CCOC(=O)CC(=O)CSc1nc2ccccc2c(=O)n1-c1ccc(C(=O)N2CCOCC2)cc1 [MLS000095558-01]	13.3	87	87			
C=CC1CN2CCC1CC2C(OC(C)=O)c1ccnc2ccc(OC)cc12 (centres unmarked) [MLS000851200-01]	1.68					99.9
CC(C)Cc1cc(C(=O)Nc2cc(Br)ccc2O)no1 [MLS000116399-01]	4.73	120	110			
O=C(CCl)N(c1ccccc1)c1c[nH]c2ccccc12 [MLS000554103-01]	2.11	100	100			
CCN1CCN(Cc2ccc(NC(=O)c3cc(NC(=O)c4nccnc4N)cc(OC)c3)cc2C(F)(F)F)CC1 [MLS000911568-01]	4.73	89	87			
O=C(Nc1cccc(-c2nc3ccccc3[nH]2)c1)c1ccc(C(=O)Nc2cccc(-c3nc4ccccc4[nH]3)c2)cc1 [MLS000766212-01]	2.66	105	96			
CC(CCc1ccccc1)NCC(O)c1cccc([N+](=O)[O-])c1 (centres unmarked) [MLS000712395-01]	0.473	104	106			
CCCc1cc(=O)oc2cc(C)cc(OC(C)C(=O)NCC(O)c3ccccc3)c12 (centres unmarked) [MLS001158075-01]	0.841	84	88			
Nc1nonc1-n1nnc(C(=O)N/N=C/c2cccs2)c1-c1ccc2c(c1)OCO2 [MLS001142649-01]	1.68	92	91			
CC(NCc1ccccc1)c1ccccc1O (centres unmarked) [MLS000850790-01]	5.31			96.3		
